Assay results: PubChem BioAssay AID256 (DTP/NCI, 2004)
“And” between values parts separate entries of the source, which are not always exact repeats. Equal values may be shown once. Inconclusive results and toxic doses are left out. Rule for the calls: active = survival T/C of 150% or more; inactive = T/C below 125% in these data.

Tested on: CD2F1 mice, L1210 leukemia ip, survival T/C
Test: NCI In Vivo Anticancer Drug Screen. Data for tumor model L1210 Leukemia (intraperitoneal) in CD2F1 (CDF1) mice
Conditions: higher = longer survival
How it was run: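 Vehicle-treated tumor-bearing mice served as controls (C) for compound-treated mice (T). Reported figure is T divided by C.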

[1] = endpoint: mean survival time, dose: 100.0 mg/kg/injection, schedule: Q01DX001 (ip), vehicle: saline with Tween-80
[2] = endpoint: mean survival time, dose: 200.0 mg/kg/injection, schedule: Q01DX001 (ip), vehicle: saline with Tween-80
[3] = endpoint: mean survival time, dose: 400.0 mg/kg/injection, schedule: Q01DX001 (ip), vehicle: saline with Tween-80
[4] = endpoint: mean survival time, dose: 100.0 mg/kg/injection, schedule: Q01DX009 (ip), vehicle: other
[5] = endpoint: mean survival time, dose: 100.0 mg/kg/injection, schedule: Q04DX003 (ip), vehicle: other
[6] = endpoint: mean survival time, dose: 200.0 mg/kg/injection, schedule: Q01DX009 (ip), vehicle: other
[7] = endpoint: mean survival time, dose: 200.0 mg/kg/injection, schedule: Q04DX003 (ip), vehicle: other
[8] = endpoint: mean survival time, dose: 400.0 mg/kg/injection, schedule: Q01DX009 (ip), vehicle: other
[9] = endpoint: mean survival time, dose: 400.0 mg/kg/injection, schedule: Q04DX003 (ip), vehicle: other
[10] = endpoint: mean survival time, dose: 100.0 mg/kg/injection, schedule: Q04DX003 (ip), vehicle: saline with Tween-80
[11] = endpoint: mean survival time, dose: 200.0 mg/kg/injection, schedule: Q04DX003 (ip), vehicle: saline with Tween-80
[12] = endpoint: mean survival time, dose: 50.0 mg/kg/injection, schedule: Q04DX003 (ip), vehicle: saline with Tween-80
[13] = endpoint: mean survival time, dose: 100.0 mg/kg/injection, schedule: Q01DX009 (ip), vehicle: saline with Tween-80
[14] = endpoint: mean survival time, dose: 200.0 mg/kg/injection, schedule: Q01DX009 (ip), vehicle: saline with Tween-80
[15] = endpoint: mean survival time, dose: 400.0 mg/kg/injection, schedule: Q01DX009 (ip), vehicle: saline with Tween-80
[16] = endpoint: mean survival time, dose: 400.0 mg/kg/injection, schedule: Q04DX003 (ip), vehicle: saline with Tween-80

Measured: T/C

O=c1n(CC2CO2)c(=O)n(CC2CO2)n1CC1CO1 (stereo unspecified)
active: endpoint: median survival time, dose: 3.0 mg/kg/injection, schedule: Q03HX024 (ip), vehicle: saline 195 % of control | endpoint: median survival time, dose: 6.0 mg/kg/injection, schedule: Q01DX009 (ip), vehicle: saline 182 % of control | endpoint: median survival time, dose: 6.0 mg/kg/injection, schedule: Q03HX024 (ip), vehicle: saline 253 % of control | endpoint: median survival time, dose: 6.25 mg/kg/injection, schedule: Q01DX009 (ip), vehicle: saline 168 % of control and 277 % of control | endpoint: median survival time, dose: 7.5 mg/kg/injection, schedule: Q01DX005 (ip), vehicle: saline 151 % of control | endpoint: median survival time, dose: 10.0 mg/kg/injection, schedule: Q01DX005 (ip), vehicle: saline 192 % of control | endpoint: median survival time, dose: 12.0 mg/kg/injection, schedule: Q01DX009 (ip), vehicle: saline 365 % of control | endpoint: median survival time, dose: 12.5 mg/kg/injection, schedule: Q01DX009 (ip), vehicle: saline 231 % of control and 277 % of control | endpoint: median survival time, dose: 15.0 mg/kg/injection, schedule: Q01DX005 (ip), vehicle: saline 210 % of control and 240 % of control | endpoint: median survival time, dose: 15.0 mg/kg/injection, schedule: Q04DX003 (ip), vehicle: saline 182 % of control | endpoint: median survival time, dose: 15.0 mg/kg/injection, schedule: Q08DX002 (ip), vehicle: saline 159 % of control | endpoint: median survival time, dose: 24.0 mg/kg/injection, schedule: Q01DX009 (ip), vehicle: saline 365 % of control | endpoint: median survival time, dose: 30.0 mg/kg/injection, schedule: Q01DX001 (ip), vehicle: saline 195 % of control | endpoint: median survival time, dose: 30.0 mg/kg/injection, schedule: Q01DX003 (iv), vehicle: saline 171 % of control | endpoint: median survival time, dose: 30.0 mg/kg/injection, schedule: Q04DX003 (ip), vehicle: saline 731 % of control | endpoint: median survival time, dose: 30.0 mg/kg/injection, schedule: Q08DX002 (ip), vehicle: saline 198 % of control | endpoint: median survival time, dose: 40.0 mg/kg/injection, schedule: Q01DX001 (ip), vehicle: saline 186 % of control | endpoint: median survival time, dose: 40.0 mg/kg/injection, schedule: Q04DX003 (ip), vehicle: saline 292 % of control | endpoint: median survival time, dose: 40.0 mg/kg/injection, schedule: Q08DX002 (ip), vehicle: saline 256 % of control | endpoint: median survival time, dose: 50.0 mg/kg/injection, schedule: Q01DX001 (iv), vehicle: saline 157 % of control | endpoint: median survival time, dose: 50.0 mg/kg/injection, schedule: Q08DX002 (ip), vehicle: saline 731 % of control | endpoint: median survival time, dose: 60.0 mg/kg/injection, schedule: Q01DX001 (ip), vehicle: saline 731 % of control | endpoint: median survival time, dose: 60.0 mg/kg/injection, schedule: Q01DX005 (oral), vehicle: saline 182 % of control | endpoint: median survival time, dose: 160.0 mg/kg/injection, schedule: Q01DX001 (oral), vehicle: saline 175 % of control
121 % of control and 277 % of control: endpoint: median survival time, dose: 25.0 mg/kg/injection, schedule: Q01DX009 (ip), vehicle: saline
inactive: endpoint: median survival time, dose: 1.5 mg/kg/injection, schedule: Q01DX009 (ip), vehicle: saline 113 % of control | endpoint: median survival time, dose: 1.5 mg/kg/injection, schedule: Q03HX024 (ip), vehicle: saline 121 % of control | endpoint: median survival time, dose: 7.5 mg/kg/injection, schedule: Q01DX003 (iv), vehicle: saline 107 % of control | endpoint: median survival time, dose: 12.0 mg/kg/injection, schedule: Q03HX008 (ip), vehicle: saline 86 % of control | endpoint: median survival time, dose: 12.0 mg/kg/injection, schedule: Q03HX024 (ip), vehicle: saline 106 % of control | endpoint: median survival time, dose: 25.0 mg/kg/injection, schedule: Q01DX001 (iv), vehicle: saline 120 % of control | endpoint: median survival time, dose: 30.0 mg/kg/injection, schedule: Q01DX005 (ip), vehicle: saline 92 % of control | endpoint: median survival time, dose: 48.0 mg/kg/injection, schedule: Q01DX009 (ip), vehicle: saline 106 % of control | endpoint: median survival time, dose: 80.0 mg/kg/injection, schedule: Q01DX001 (ip), vehicle: saline 97 % of control | endpoint: median survival time, dose: 80.0 mg/kg/injection, schedule: Q01DX001 (iv), vehicle: saline 89 % of control | endpoint: median survival time, dose: 240.0 mg/kg/injection, schedule: Q01DX001 (oral), vehicle: saline 97 % of control

CCOc1ccc(/C=N/NC(=O)c2ccccc2NC(=O)C2CC2)cc1OC
inactive: [1] 98 % of control | [2] 94 % of control | [3] 94 % of control

CC1=CC(O)(C2(O)C=C(C)CC(C)(C)C2)CC(C)(C)C1 (stereo unspecified)
inactive: [4] 102 % of control | [5] 102 % of control | [6] 90 % of control | [7] 96 % of control | [8] 88 % of control | [9] 94 % of control

CN1CCC(c2ccccc2)c2ccccc21 (stereo unspecified)
inactive: endpoint: mean survival time, dose: 50.0 mg/kg/injection, schedule: Q04DX003 (ip), vehicle: other 97 % of control | [5] 100 % of control | [7] 100 % of control | [9] 100 % of control

O=C1NCCN1c1ccccc1[N+](=O)[O-]
inactive: endpoint: mean survival time, dose: 12.5 mg/kg/injection, schedule: Q01DX009 (ip), vehicle: other 96 % of control | endpoint: mean survival time, dose: 25.0 mg/kg/injection, schedule: Q01DX009 (ip), vehicle: other 91 % of control | endpoint: mean survival time, dose: 50.0 mg/kg/injection, schedule: Q01DX009 (ip), vehicle: other 96 % of control | [4] 108 % of control | [6] 101 % of control

COC1OC2COC(c3ccccc3)OC2C2NC(N)(N[N+](=O)[O-])C12O (stereo unspecified)
inactive: [1] 91 % of control | [2] 88 % of control | [3] 94 % of control

C/C(C#N)=C/c1ccccc1
inactive: endpoint: mean survival time, dose: 50.0 mg/kg/injection, schedule: Q01DX009 (ip), vehicle: saline sonified 108 % of control | endpoint: mean survival time, dose: 100.0 mg/kg/injection, schedule: Q01DX009 (ip), vehicle: saline sonified 105 % of control | [10] 100 % of control | endpoint: mean survival time, dose: 200.0 mg/kg/injection, schedule: Q01DX009 (ip), vehicle: saline sonified 105 % of control | [11] 105 % of control

[Cl][Pt+2][Cl].[NH-]c1cccc(F)c1.[NH-]c1cccc(F)c1
inactive: endpoint: mean survival time, dose: 12.5 mg/kg/injection, schedule: Q04DX003 (ip), vehicle: saline with Tween-80 97 % of control | endpoint: mean survival time, dose: 25.0 mg/kg/injection, schedule: Q04DX003 (ip), vehicle: saline with Tween-80 114 % of control | [12] 102 % of control

O=C1N[C@@H]2C(=C[C@H](O)[C@@H](O)[C@H]2O)c2cc3c(c(O)c21)OCO3
inactive: endpoint: median survival time, dose: 0.62 mg/kg/injection, schedule: Q01DX009 (ip), vehicle: saline with Tween-80 110 % of control | endpoint: median survival time, dose: 1.25 mg/kg/injection, schedule: Q01DX009 (ip), vehicle: saline with Tween-80 108 % of control | endpoint: median survival time, dose: 2.5 mg/kg/injection, schedule: Q01DX009 (ip), vehicle: saline with Tween-80 113 % of control | endpoint: median survival time, dose: 5.0 mg/kg/injection, schedule: Q01DX009 (ip), vehicle: saline with Tween-80 115 % of control

CC1=C/C(=N/NC(N)=O)CC(C)C1 (stereo unspecified)
inactive: [13] 91 % of control | [14] 97 % of control | [15] 98 % of control

CCCCOC(=O)CCCCC(=O)OCCCC
inactive: [13] 96 % of control | [10] 97 % of control | [14] 105 % of control | [11] 98 % of control | [15] 110 % of control | [16] 97 % of control

CCC12CC(Br)C(C1)OC2=O (stereo unspecified)
inactive: [4] 96 % of control | [6] 101 % of control | [8] 100 % of control

COc1ccc(OC)c(C2=CCCCCC2)c1OC
inactive: [10] 101 % of control | [11] 101 % of control | [16] 98 % of control

O=C(O)C1CCC[N-]C1.O=C(O)C1CCC[N-]C1.[Cl][Pt+2][Cl] (stereo unspecified)
inactive: endpoint: mean survival time, dose: 5.0 mg/kg/injection, schedule: Q04DX003 (ip), vehicle: saline with Tween-80 95 % of control | endpoint: mean survival time, dose: 10.0 mg/kg/injection, schedule: Q04DX003 (ip), vehicle: saline with Tween-80 112 % of control | endpoint: mean survival time, dose: 20.0 mg/kg/injection, schedule: Q04DX003 (ip), vehicle: saline with Tween-80 107 % of control

CCCCCCC(/C=N\N=C\c1ccco1)=C\c1ccccc1
inactive: [13] 92 % of control | [10] 90 % of control | [14] 92 % of control | [11] 100 % of control | [15] 100 % of control | [16] 90 % of control

CC(C)(C)NC(=S)Nc1ccccc1
inactive: [12] 100 % of control | [10] 94 % of control | [11] 91 % of control

COc1ccc2nc3c(Cl)cccc3c(Cl)c2c1
inactive: [12] 98 % of control | [10] 97 % of control | [2] 87 % of control | [11] 101 % of control

O=C(O)CSCC(=O)c1ccccc1
inactive: [13] 98 % of control | [10] 94 % of control | [14] 100 % of control | [11] 98 % of control | [15] 98 % of control | [16] 102 % of control
